Reference: patent US20110237567A9, “TRICYCLIC SPIRO-OXINDOLE DERIVATIVES AND THEIR USES AS THERAPEUTIC AGENTS” (XENON PHARMACEUTICALS INC., priority 2006, published 2011)

What was measured:
[1] = tested on: sodium channel; test: Guanidine influx assay (in vitro); assay type: cell-based, human or rat; conditions: known cell line that expresses a sodium channel; read-out: IC50 Activity Level
Source text: This example describes an in vitro assay for testing and profiling test agents against human or rat sodium channels stably expressed in cells of either an endogenous or recombinant origin. The assay is also useful for determining the IC-50 of a sodium channel blocking compound. The assay is based on the guanidine flux assay described by Reddy, N. L., et al., J Med Chem (1998), 41(17):3298-302.
The guanidine influx assay is a radiotracer flux assay used to determine ion flux activity of sodium channels in a high-throughput microplate-based format. The assay uses ^14C-guanidine hydrochloride in combination with various known sodium channel modulators, to assay the potency of test agents. Potency is determined by an IC-50 calculation. Selectivity is determined by comparing potency of the compound for the channel of interest to its potency against other sodium channels (also called ‘selectivity profiling’). […]
Cells expressing the channel of interest are grown according to the supplier or in the case of a recombinant cell in the presence of selective growth media such as G418 (Gibco/Invitrogen). The cells are disassociated from the culture dishes with an enzymatic solution (1×) Trypsin/EDTA (Gibco/Invitrogen) and analyzed for density and viability using haemocytometer (Neubauer). […]
IC-50 value of a test agent for a specific sodium channel may be determined using the above general method. […]

| IC50 [1] | melting point | SMILES |
| --- | --- | --- |
| 0.01 to 0.1 µM |  | O=C1N2CCCCc3ccc(Br)c(c32)C12COc1cc3c(cc12)OCO3 (stereo not drawn) [Example 4] |
| 0.1 to 1 µM |  | O=C1N2CCCOc3cccc(c32)C12COc1cc3c(cc12)OCO3 (stereo not drawn) [Example 2] |
|  | 216 to 217 °C | O=C1N2CCCSc3cccc(c32)C12COc1cc3c(cc12)OCO3 (stereo not drawn) [Synthetic Example 1, 3′,4′-Dihydro-2′H-spiro[furo[2,3-f][1,3]benzodioxole-7,7′-[1,4]thiazepino[2,3,4-hi]indol]-6′-one] |
